Reference: ChEMBL document CHEMBL4837226, “Discovery of pyrrole derivatives for the treatment of glioblastoma and chronic myeloid leukemia” (Eur J Med Chem, 2021)
Counter-ions that a name gives are not always drawn.

How the values were obtained:
Tubulin (Homo sapiens) [1] = target: T1, Tubulin (Homo sapiens) (UniProt P68371+Q9H4B7+P0DPH7+P68366+Q13509+Q71U36+P04350+Q3ZCM7+P07437+P68363+Q9BQE3+Q6PEY2+Q13885+Q9BVA1+Q9BUF5); assay: Inhibition of [3H]Colchicine binding to tubulin (unknown origin) at 5 uM measured after 10 mins by DEAE-Cellulose filter method relative to control; type: protein-complex assay
Tubulin = assay: Inhibition of tubulin polymerization (unknown origin) assessed as reduction in tubulin assembly preincubated for 15 mins followed by GTP addition by spectrophotometric method; type: protein-complex assay, Homo sapiens
Tubulin (Homo sapiens) [2] = target: T1, Tubulin (Homo sapiens); assay: Inhibition of [3H]Colchicine binding to tubulin (unknown origin) at 1 uM measured after 10 mins by DEAE-Cellulose filter method relative to control; type: protein-complex assay
MCF7 = assay: Cytotoxicity against human MCF7 cells assessed as cell growth inhibition measured after 96 hrs; type: functional, cell-based; conditions: MCF7, 96 h
KU812 cell line = assay: Cytotoxicity against Bcr-Abl expressing human KU812 cells assessed as cell growth inhibition measured after 48 hrs by MTT assay; type: functional, cell-based; conditions: KU812, 48 h
KBM5 [3] = assay: Cytotoxicity against Imatinib mesylate sensitive wild-type human KBM5 cells assessed as cell growth inhibition measured after 48 hrs by MTT assay; type: functional, cell-based; conditions: KBM5, 48 h
KBM5 [4] = assay: Cytotoxicity against imatinib mesylate resistant wild-type human KBM5 cells expressing T315I mutant assessed as cell growth inhibition measured after 48 hrs by MTT assay; type: functional, cell-based; conditions: KBM5, 48 h
[5] = Cytotoxicity against human U-343MG cells assessed as cell growth inhibition measured after 72 hrs by MTS colorimetric assay; type: functional, cell-based
[6] = Cytotoxicity against human U343MG cells assessed as cell growth inhibition by measuring maximum efficacy measured after 72 hrs by MTS colorimetric assay relative to control; type: functional; conditions: U-343MG
U-87 MG [7] = assay: Cytotoxicity against human U-87MG cells assessed as cell growth inhibition measured after 48 hrs by MTS colorimetric assay; type: functional, cell-based, U-87MG ATCC
U-87 MG [8] = assay: Cytotoxicity against human U-87MG cells assessed as cell growth inhibition by measuring maximum efficacy measured after 48 hrs by MTS colorimetric assay relative to control; type: functional, U-87MG ATCC
SW480 = assay: Cytotoxicity against human SW480 cells assessed as cell growth inhibition measured after 48 hrs by XTT dye based assay; type: functional; conditions: SW480, 48 h
SW-620 = assay: Cytotoxicity against human SW-620 cells assessed as cell growth inhibition measured after 48 hrs by XTT dye based assay; type: functional; conditions: SW-620, 48 h

Row | Structure (SMILES) | inhibition (Tubulin (Homo sapiens) [1]) [%] | IC50 (Tubulin) [nM] | inhibition (Tubulin (Homo sapiens) [2]) [%] | IC50 (MCF7) [nM] | also measured
1 | COc1cc(C(=O)c2cn(-c3ccc(F)cc3)cc2-c2ccccn2)cc(OC)c1OC | 44 | 820 |  | 73 | 
2 | COc1cc(C(=O)c2cn(-c3ccc(C)cc3)cc2-c2ncco2)cc(OC)c1OC | 90 | 720 | 45 | 42 | 
3 | COc1cc(C(=O)c2cn(-c3ccc(F)cc3)cc2-c2ncco2)cc(OC)c1OC | 68 | 1400 |  | 93 | 
4 | COc1cc(C(=O)c2cn(-c3ccc(F)cc3)cc2-c2nccs2)cc(OC)c1OC | 69 | 780 |  | 22 | 
5 | Cc1ccc(C(=O)Nc2ccc(CN3CCN(C)CC3)c(C(F)(F)F)c2)cc1C#Cc1cnc2cccnn12 [PONATINIB] |  |  |  |  | IC50 (KU812 cell line): 8.5 nM; IC50 (KBM5 [3]): 10.2 nM; IC50 (KBM5 [4]): 10.6 nM
6 | COc1cc(C(=O)c2cn(-c3cccc(C)c3)cc2-c2ccccn2)cc(OC)c1OC | 66 | 780 |  | 140 | 
7 | COc1cc(C(=O)c2cn(-c3ccc(C)cc3)cc2-c2cccnc2)cc(OC)c1OC | 92 | 640 | 58 | 19 | 
8 | Cc1ccc(NC(=O)c2ccc(CN3CCN(C)CC3)cc2)cc1Nc1nccc(-c2cccnc2)n1 [IMATINIB MESYLATE] |  |  |  |  | IC50 (KU812 cell line): 311 nM; IC50 (KBM5 [3]): 152 nM; IC50 (KBM5 [4]): 311 nM
9 | COc1cc(C(=O)c2cn(-c3cccc(C)c3)cc2-c2cccnc2)cc(OC)c1OC | 78 | 740 |  | 52 | 
10 | COc1cc(C(=O)c2cn(-c3cccc(C)c3)cc2-c2ccncc2)cc(OC)c1OC | 88 | 590 |  | 65 | 
11 | COc1cc(C(=O)c2cn(-c3cccc(C)c3)cc2-c2ncco2)cc(OC)c1OC | 77 | 720 |  | 75 | 

Now from value to compound, other results behind:

Row | inhibition (Tubulin (Homo sapiens) [1]) [%] | IC50 (Tubulin) [nM] | inhibition (Tubulin (Homo sapiens) [2]) [%] | Structure (SMILES) | IC50 (MCF7) [nM] | also measured
12 | 95 | 470 | 71 | COc1cc(C(=O)c2cn(-c3ccc(C)cc3)cc2-c2ccoc2)cc(OC)c1OC | 18 | 
13 | 94 | 440 | 70 | COc1cc(C(=O)c2cn(-c3ccc(C)cc3)cc2-c2ccncc2)cc(OC)c1OC | 9 | 
14 | 87 | 380 | 71 | COc1cc(C(=O)c2cn(-c3ccc(F)cc3)cc2-c2ccoc2)cc(OC)c1OC | 15 | 
15 | 92 | 460 | 71 | COc1cc(C(=O)c2cn(-c3ccc(C)cc3)cc2-c2ccco2)cc(OC)c1OC | 22 | 
16 | 74 | 520 |  | COc1cc(C(=O)c2cn(-c3cccc(C)c3)cc2-c2ccsc2)cc(OC)c1OC | 65 | 
17 | 80 | 560 |  | COc1cc(C(=O)c2cn(-c3cccc(C)c3)cc2-c2ccco2)cc(OC)c1OC | 23 | 
18 | 82 | 470 |  | COc1cc(C(=O)c2cn(-c3ccc(F)cc3)cc2-c2ccco2)cc(OC)c1OC | 17 | 
19 | 91 | 560 | 63 | COc1cc(C(=O)c2cn(-c3ccc(C)cc3)cc2-c2nccs2)cc(OC)c1OC | 14 | 
20 | 76 | 550 |  | COc1cc(C(=O)c2cn(-c3ccc(F)cc3)cc2-c2ccsc2)cc(OC)c1OC | 15 | 
21 | 87 | 580 |  | COc1cc(C(=O)c2cn(-c3ccc(F)cc3)cc2-c2ccncc2)cc(OC)c1OC | 9 | IC50 [5]: 432 nM; Emax [6]: 75.1%; IC50 (U-87 MG [7]): 39.1 nM; Emax (U-87 MG [8]): 56%; IC50 (KU812 cell line): 12.4 nM; IC50 (KBM5 [3]): 12.2 nM; IC50 (KBM5 [4]): 13.1 nM; IC50 (SW480): 934 nM; IC50 (SW-620): 66.5 nM
22 | 80 | 560 |  | COc1cc(C(=O)c2cn(-c3ccc(F)cc3)cc2-c2cccnc2)cc(OC)c1OC | 39 | 
23 | 83 | 460 |  | COc1cc(C(=O)c2cn(-c3ccc(C)cc3)cc2-c2ccccn2)cc(OC)c1OC | 36 | 
24 | 83 | 490 |  | COc1cc(C(=O)c2cn(-c3cccc(C)c3)cc2-c2nccs2)cc(OC)c1OC | 20 | 
25 | 87 | 420 | 64 | COc1cc(C(=O)c2cn(-c3cccc(C)c3)cc2-c2ccoc2)cc(OC)c1OC | 21 | 
